Test results from publication PMC4295349, “Synthetic Antimicrobial Peptides Exhibit Two Different Binding Mechanisms to the Lipopolysaccharides Isolated from Pseudomonas aeruginosa and Klebsiella pneumoniae” (International Journal of Medicinal Chemistry, 2014).
Where two headings read alike, the source gives them in different places. Where a SMILES comes first, the peptide text is derived from it. [ ]: non-standard residue; d: D form. ξ: configuration not given here. Oic = O=C(O)[C@@H]1C[C@@H]2CCCC[C@@H]2N1; Oic(3aξ,7aξ) = O=C(O)[C@@H]1CC2CCCCC2N1; Tic = O=C(O)[C@@H]1Cc2ccccc2CN1; Orn = NCCC[C@H](N)C(=O)O; Dap = NC[C@H](N)C(=O)O

Legend:
K. pneumoniae BAMC 07-18 [1] = format: cell-based, Klebsiella pneumoniae
Source text: Table 3 In vitro minimum inhibitory concentration (MIC) and minimum bactericide concentration (MBC) activity against K. pneumonia and P. aeruginosa. | column: K. pneumoniae BAMC 07-18 / MBC (μg/mL)/(μM)

P. aeruginosa PAO1 [2] = format: cell-based, Pseudomonas aeruginosa
Source text: Table 3 In vitro minimum inhibitory concentration (MIC) and minimum bactericide concentration (MBC) activity against K. pneumonia and P. aeruginosa. | column: P. aeruginosa PAO1 / MBC (µg/mL)/(μM)

[3] = format: physicochemical
Description: (§1) Peptide solutions were prepared by dissolving approximately 2 mg of AMPs 70, 74, 75, 79, or 80 in 1.0 mL of phosphate buffer. […] For the LPS liposome studies 350 μL of stock LPS solution was mixed with 50 μL of stock peptide solution. CD spectroscopy is a sensitive technique, so it is commonly used to monitor conformational changes in peptides and proteins. […] All CD spectra were obtained by acquiring 8 scans using a 0.1 mm cylindrical quartz cell with a spectral range of 260 to 195 nm (at wavelengths below 195 nm the HTV exceeded 400, and therefore data collection was terminated at 195 nm) and a scanning rate of 20 nm/min. Acquisition parameters were bandwidth 1 nm, data pitch 0.2 nm, response time 2.0 s, and 5 mdeg sensitivity. Spectra were collected at room temperature (298 K). Contributions from LPS were eliminated by subtracting from the corresponding AMP-LPS solutions. All analyses of CD spectra were conducted after smoothing with a means-movement function.

K. pneumoniae BAMC 07-18 [4] = settings: for in vitro inhibitory activity: against K. pneumoniae
P. aeruginosa PAO1 [5] = settings: for in vitro inhibitory activity: against P. aeruginosa
[6] = test system: LPS isolated from P. aeruginosa or K. pneumoniae; assay: Precipitation of AMP-LPS mixtures prepared for CD; format: physicochemical; settings: 350 μL stock LPS + 50 μL stock peptide, phosphate buffer; CD spectra could not be obtained
Description: as §1

[7] = K. pneumoniae BAMC 07-18, light face value
[8] = P. aeruginosa PAO1, light face value

Compound	solubility in phosphate buffer at approximately 2 mg in 1.0 mL [3]	MIC (K. pneumoniae BAMC 07-18 [4]; BAMC 07-18)	MIC (P. aeruginosa PAO1 [5]; PAO1)	MIC (K. pneumoniae BAMC 07-18 [4]; [7]) [mg/L]	MIC (P. aeruginosa PAO1 [5]; [8]) [mg/L]	MBC (K. pneumoniae BAMC 07-18 [1]; BAMC 07-18)	MBC (P. aeruginosa PAO1 [2]; PAO1)	in vitro inhibitory activity (K. pneumoniae BAMC 07-18 [4]) [µg/mL]	in vitro inhibitory activity (P. aeruginosa PAO1 [5]) [µg/mL]	precipitation in the presence of either LPS [6]	MBC (K. pneumoniae BAMC 07-18 [1]; [7]) [mg/L]	MBC (P. aeruginosa PAO1 [2]; [8]) [mg/L]
CC(C)C[C@H](NC(=O)[C@@H](N)CCCCN)C(=O)N1Cc2ccccc2C[C@H]1C(=O)N1[C@H](C(=O)N[C@@H](CCCCN)C(=O)N2Cc3ccccc3C[C@H]2C(=O)N2[C@H](C(=O)N[C@@H](Cc3ccccc3)C(=O)N3Cc4ccccc4C[C@H]3C(=O)N3[C@H](C(=O)N[C@@H](CCCCN)C(=O)N4Cc5ccccc5C[C@H]4C(=O)N4[C@H](C(=O)N[C@@H](Cc5ccccc5)C(=O)N5Cc6ccccc6C[C@H]5C(=O)N5[C@H](C(=O)N[C@@H](CCCCN)C(=O)N6Cc7ccccc7C[C@H]6C(=O)N6[C@H](C(=O)N[C@@H](CCCCN)C(=O)N[C@@H](CCCNC(=N)N)C(N)=O)C[C@@H]7CCCC[C@@H]76)C[C@@H]6CCCC[C@@H]65)C[C@@H]5CCCC[C@@H]54)C[C@@H]4CCCC[C@@H]43)C[C@@H]3CCCC[C@@H]32)C[C@@H]2CCCC[C@@H]21 [AMP 22] (H-KL[Tic][Oic]K[Tic][Oic]F[Tic][Oic]K[Tic][Oic]F[Tic][Oic]K[Tic][Oic]KR-NH2)	solubility issues	>100 mg/L	>100 mg/L	–	–	>100 mg/L	>100 mg/L	≥ 100	≥ 100	–	–	–
CC(C)C[C@H](NC(=O)[C@@H](N)CCCN)C(=O)N1Cc2ccccc2C[C@H]1C(=O)N1[C@H](C(=O)N[C@@H](CCCN)C(=O)N2Cc3ccccc3C[C@H]2C(=O)N2[C@H](C(=O)N[C@@H](Cc3ccccc3)C(=O)N3Cc4ccccc4C[C@H]3C(=O)N3[C@H](C(=O)N[C@@H](CCCN)C(=O)N4Cc5ccccc5C[C@H]4C(=O)N4[C@H](C(=O)N[C@@H](Cc5ccccc5)C(=O)N5Cc6ccccc6C[C@H]5C(=O)N5[C@H](C(=O)N[C@@H](CCCN)C(=O)N6Cc7ccccc7C[C@H]6C(=O)N6[C@H](C(=O)N[C@@H](CCCN)C(=O)N[C@@H](CCCN)C(=O)N[C@@H](CCCN)C(=O)N[C@@H](CCCN)C(N)=O)C[C@@H]7CCCC[C@@H]76)C[C@@H]6CCCC[C@@H]65)C[C@@H]5CCCC[C@@H]54)C[C@@H]4CCCC[C@@H]43)C[C@@H]3CCCC[C@@H]32)C[C@@H]2CCCC[C@@H]21 [AMP 71] (H-[Orn]L[Tic][Oic][Orn][Tic][Oic]F[Tic][Oic][Orn][Tic][Oic]F[Tic][Oic][Orn][Tic][Oic][Orn][Orn][Orn][Orn]-NH2)	–	31.2 µM	31.2 µM	100	100	–	–	–	–	precipitation of uncharacterized AMP-LPS complexes	–	–
CC(C)C[C@H](NC(=O)[C@@H](N)CN)C(=O)N1Cc2ccccc2C[C@H]1C(=O)N1[C@H](C(=O)N[C@@H](CN)C(=O)N2Cc3ccccc3C[C@H]2C(=O)N2[C@H](C(=O)N[C@@H](Cc3ccccc3)C(=O)N3Cc4ccccc4C[C@H]3C(=O)N3[C@H](C(=O)N[C@@H](CN)C(=O)N4Cc5ccccc5C[C@H]4C(=O)N4[C@H](C(=O)N[C@@H](Cc5ccccc5)C(=O)N5Cc6ccccc6C[C@H]5C(=O)N5[C@H](C(=O)N[C@@H](CN)C(=O)N6Cc7ccccc7C[C@H]6C(=O)N6[C@H](C(=O)N[C@@H](CN)C(=O)N[C@@H](CN)C(=O)N[C@@H](CN)C(=O)N[C@@H](CN)C(N)=O)C[C@@H]7CCCC[C@@H]76)C[C@@H]6CCCC[C@@H]65)C[C@@H]5CCCC[C@@H]54)C[C@@H]4CCCC[C@@H]43)C[C@@H]3CCCC[C@@H]32)C[C@@H]2CCCC[C@@H]21 [AMP 72] (H-[Dap]L[Tic][Oic][Dap][Tic][Oic]F[Tic][Oic][Dap][Tic][Oic]F[Tic][Oic][Dap][Tic][Oic][Dap][Dap][Dap][Dap]-NH2)	–	33.6 µM	16.8 µM	100	50	33.6 µM	33.6 µM	–	–	precipitation of uncharacterized AMP-LPS complexes	100	100
CC(C)C[C@H](NC(=O)[C@@H](N)CCCCN)C(=O)N1Cc2ccccc2C[C@H]1C(=O)N1C2CCCCC2C[C@H]1C(=O)NCC(=O)N[C@@H](CCCCN)C(=O)N1Cc2ccccc2C[C@H]1C(=O)N1C2CCCCC2C[C@H]1C(=O)NCC(=O)N[C@@H](Cc1ccccc1)C(=O)N1Cc2ccccc2C[C@H]1C(=O)N1C2CCCCC2C[C@H]1C(=O)NCC(=O)N[C@@H](CCCCN)C(=O)N1Cc2ccccc2C[C@H]1C(=O)N1C2CCCCC2C[C@H]1C(=O)NCC(=O)N[C@@H](Cc1ccccc1)C(=O)N1Cc2ccccc2C[C@H]1C(=O)N1C2CCCCC2C[C@H]1C(=O)NCC(=O)N[C@@H](CCCCN)C(=O)N1Cc2ccccc2C[C@H]1C(=O)N1C2CCCCC2C[C@H]1C(=O)N[C@@H](CCCCN)C(=O)N[C@@H](CCCCN)C(=O)N[C@@H](CCCCN)C(=O)N[C@@H](CCCCN)C(N)=O (stereo partly shown) [AMP 76] (H-KL[Tic][Oic(3aξ,7aξ)]GK[Tic][Oic(3aξ,7aξ)]GF[Tic][Oic(3aξ,7aξ)]GK[Tic][Oic(3aξ,7aξ)]GF[Tic][Oic(3aξ,7aξ)]GK[Tic][Oic(3aξ,7aξ)]KKKK-NH2)	solubility issues	13.9 µM	13.9 µM	50	50	13.9 µM	13.9 µM	–	50	–	50	50

More lines, main results first:

solubility in phosphate buffer at approximately 2 mg in 1.0 mL [3]	MIC (K. pneumoniae BAMC 07-18 [4]; BAMC 07-18)	MIC (P. aeruginosa PAO1 [5]; PAO1)	MIC (K. pneumoniae BAMC 07-18 [4]; [7]) [mg/L]	MIC (P. aeruginosa PAO1 [5]; [8]) [mg/L]	Compound	MBC (K. pneumoniae BAMC 07-18 [1]; BAMC 07-18)	MBC (P. aeruginosa PAO1 [2]; PAO1)	in vitro inhibitory activity (K. pneumoniae BAMC 07-18 [4]) [µg/mL]	in vitro inhibitory activity (P. aeruginosa PAO1 [5]) [µg/mL]	precipitation in the presence of either LPS [6]	MBC (K. pneumoniae BAMC 07-18 [1]; [7]) [mg/L]	MBC (P. aeruginosa PAO1 [2]; [8]) [mg/L]
solubility issues	14.6 µM	14.6 µM	50	50	CC(C)C[C@H](NC(=O)[C@@H](N)CCCCN)C(=O)N1Cc2ccccc2C[C@H]1C(=O)N1[C@H](C(=O)N[C@@H](CCCCN)C(=O)N2Cc3ccccc3C[C@H]2C(=O)N2[C@H](C(=O)N[C@@H](Cc3ccccc3)C(=O)NCC(=O)N3Cc4ccccc4C[C@H]3C(=O)N3[C@H](C(=O)N[C@@H](CCCCN)C(=O)N4Cc5ccccc5C[C@H]4C(=O)N4[C@H](C(=O)N[C@@H](Cc5ccccc5)C(=O)NCC(=O)N5Cc6ccccc6C[C@H]5C(=O)N5[C@H](C(=O)N[C@@H](CCCCN)C(=O)N6Cc7ccccc7C[C@H]6C(=O)N6[C@H](C(=O)N[C@@H](CCCCN)C(=O)N[C@@H](CCCCN)C(=O)N[C@@H](CCCCN)C(=O)N[C@@H](CCCCN)C(N)=O)C[C@@H]7CCCC[C@@H]76)C[C@@H]6CCCC[C@@H]65)C[C@@H]5CCCC[C@@H]54)C[C@@H]4CCCC[C@@H]43)C[C@@H]3CCCC[C@@H]32)C[C@@H]2CCCC[C@@H]21 [AMP 77] (H-KL[Tic][Oic]K[Tic][Oic]FG[Tic][Oic]K[Tic][Oic]FG[Tic][Oic]K[Tic][Oic]KKKK-NH2)	29.2 µM	14.6 µM	–	50	–	100	50
solubility issues	14.3 µM	14.3 µM	50	50	CC(C)C[C@H](NC(=O)[C@@H](N)CCCCN)C(=O)N1Cc2ccccc2C[C@H]1C(=O)N1C2CCCCC2C[C@H]1C(=O)N[C@@H](CCCCN)C(=O)NCC(=O)N1Cc2ccccc2C[C@H]1C(=O)N1C2CCCCC2C[C@H]1C(=O)N[C@@H](Cc1ccccc1)C(=O)N1Cc2ccccc2C[C@H]1C(=O)N1C2CCCCC2C[C@H]1C(=O)N[C@@H](CCCCN)C(=O)NCC(=O)N1Cc2ccccc2C[C@H]1C(=O)N1C2CCCCC2C[C@H]1C(=O)N[C@@H](Cc1ccccc1)C(=O)N1Cc2ccccc2C[C@H]1C(=O)N1C2CCCCC2C[C@H]1C(=O)N[C@@H](CCCCN)C(=O)NCC(=O)N1Cc2ccccc2C[C@H]1C(=O)N1C2CCCCC2C[C@H]1C(=O)N[C@@H](CCCCN)C(=O)N[C@@H](CCCCN)C(=O)N[C@@H](CCCCN)C(=O)N[C@@H](CCCCN)C(N)=O (stereo partly shown) [AMP 78] (H-KL[Tic][Oic(3aξ,7aξ)]KG[Tic][Oic(3aξ,7aξ)]F[Tic][Oic(3aξ,7aξ)]KG[Tic][Oic(3aξ,7aξ)]F[Tic][Oic(3aξ,7aξ)]KG[Tic][Oic(3aξ,7aξ)]KKKK-NH2)	28.6 µM	14.3 µM	50	50	–	100	50
